Measured values as given in the supplement of paper PMC11208160.

experiment: recombinant UMI read abundance after kanamycin selection (control-corrected) (log10(CPM+1)); higher = more efficient recombination; extreme values may be limits of the assay; sequences stand for … in AGTGCAGAGAAAATCGGCCAGTTTTCTCTGCCTGCAGTCCGCATGCCGTGGGACCCCTTGGGTTCTAACCTGTTGCCTAGATTTATGCAGCGGACTGCCTTTCTCCCAAAGTGATAAACCGG…AGGTTGGTTTCACT; site = the 11-nt donor
In short: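 The measure is log10(CPM+1) for recombinant UMIs. These were PCR-amplified across the donor–target junction and sequenced after Escherichia coli carrying a donor and donor-binding-loop pair library and a target plasmid with T7-inducible IS621 bridge recombinase was plated on IPTG (0.07 mM) plus kanamycin or unselected. CPM were averaged over two replicates and scaled by control-derived factors.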
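Also: IS621 bridge recombinase in Escherichia coli cells against a fixed T5 target plasmid.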

Sequence | recombinant UMI read abundance (log10)
GGTCGAGCATGGACCGGTTTTCCCGGTAATCCGTATTTGCA (site GGTCGAGCTTG) | 1.83
AACGTAACATGGACCGGTTTTCCCGGTAATCCGTATTTGCT (site AAAGTAACTAG) | 0.893
CCTAATACATGGACCGGTTTTCCCGGTAATCCGTATTTGGC (site CCTCATACTGC) | 0
GTGGCACCATGGACCGGTTTTCCCGGTAATCCGTATTTGCA (site GAGGCACCTTG) | 0
GGCCAACCATGGACCGGTTTTCCCGGTAATCCGTATTTGTT (site GGCCATCCTAA) | 0.00632
TAGCCATCATGGACCGGTTTTCCCGGTAATCCGTATTTGGT (site TAGCCATCTAC) | 0.74
CAGCTAGCATGGACCGGTTTTCCCGGTAATCCGTATTTGAA (site AAGCTAGCTTT) | 0.0151
GCGAAGCCATGGACCGGTTTTCCCGGTAATCCGTATTTGGG (site GGGAAGCCTCC) | 0.0306
CACGGCCCATGGACCGGTTTTCCCGGTAATCCGTATTTGTT (site CACGGCCCTAT) | 0.437
GGAGTGGCATGGACCGGTTTTCCCGGTAATCCGTATTTGGT (site GGAGTGGCTGC) | 0.537
TAATGAGCATGGACCGGTTTTCCCGGTAATCCGTATTTGGT (site TAATGAGCTGC) | 0
CACAGATCATGGACCGGTTTTCCCGGTAATCCGTATTTGCT (site CACAGATCTAG) | 2.32
ATTCACGCATGGACCGGTTTTCCCGGTAATCCGTATTTGCA (site ATTCACGCTTG) | 2.42
GGCCAACCATGGACCGGTTTTCCCGGTAATCCGTATTTGTT (site GGCCAGCCTAA) | 0.0207
TATAATACATGGACCGGTTTTCCCGGTAATCCGTATTTGCA (site TATAATACTTG) | 0.242
CCAGCTGCATGGACCGGTTTTCCCGGTAATCCGTATTTGAT (site CCAGGTGCTAT) | 0.00694
CAAGCAGCATGGACCGGTTTTCCCGGTAATCCGTATTTGAT (site CAAGCAGCTAA) | 0.982
CACACCCCATGGACCGGTTTTCCCGGTAATCCGTATTTGCC (site CACACCCCTGG) | 1.91
TATGTATCATGGACCGGTTTTCCCGGTAATCCGTATTTGCC (site TATGTATCTGG) | 2.66
AGGAAGTCATGGACCGGTTTTCCCGGTAATCCGTATTTGCA (site AGGAAGGCTTG) | 0
CATTGCTCATGGACCGGTTTTCCCGGTAATCCGTATTTGAA (site CATTGCTCTTT) | 1.05
CAGTCCTCATGGACCGGTTTTCCCGGTAATCCGTATTTGCC (site CAATCCTCTGG) | 2.78
CGACACGCATGGACCGGTTTTCCCGGTAATCCGTATTTGTT (site CGACACGCTAA) | 2
CGGGAAACATGGACCGGTTTTCCCGGTAATCCGTATTTGAT (site CGGGAAACTAT) | 2.27
GAAGGGCCATGGACCGGTTTTCCCGGTAATCCGTATTTGTG (site GAAGGGCCTCA) | 0.0149

Sequence | recombinant UMI read abundance (log10)
AGTTTGGCATGGACCGGTTTTCCCGGTAATCCGTATTTGCT (site TGTTTGGCTAG) | 0.0837
CACGCGCCATGGACCGGTTTTCCCGGTAATCCGTATTTGTG (site CAGGCGCCTCA) | 0.056
AGAAAGGCATGGACCGGTTTTCCCGGTAATCCGTATTTGTT (site AGAAAGGCTAA) | 1.99
AGCTCAGCATGGACCGGTTTTCCCGGTAATCCGTATTTGGG (site AGCCCAGCTCC) | 0.263
CCCTGGCCATGGACCGGTTTTCCCGGTAATCCGTATTTGCC (site CCCTGGCCTGG) | 0
GAGCTCACATGGACCGGTTTTCCCGGTAATCCGTATTTGAT (site GATCTCACTAT) | 0.0468
CGCTTGGCATGGACCGGTTTTCCCGGTAATCCGTATTTGGA (site CACTTGGCTTC) | 0.361
GGGGCACCATGGACCGGTTTTCCCGGTAATCCGTATTTGTA (site GGGGCACCTTA) | 0
CGCTAGCCATGGACCGGTTTTCCCGGTAATCCGTATTTGCC (site CTCTAGCCTGG) | 1.8
TTTGCGGCATGGACCGGTTTTCCCGGTAATCCGTATTTGCT (site TTTGAGGCTAG) | 0.00621
AATGTAACATGGACCGGTTTTCCCGGTAATCCGTATTTGAT (site AATGTAACTAG) | 0.00602
TGTAAGACATGGACCGGTTTTCCCGGTAATCCGTATTTGGC (site TGTAAGACTGC) | 0
GCTAGTGCATGGACCGGTTTTCCCGGTAATCCGTATTTGGT (site CCTAGTGCTAC) | 1.65
CTGTAGGCATGGACCGGTTTTCCCGGTAATCCGTATTTGGC (site GTGTAGGCTGC) | 0
CTACTAACATGGACCGGTTTTCCCGGTAATCCGTATTTGGC (site CTACTAACTCC) | 0.31
TGCCGGTCATGGACCGGTTTTCCCGGTAATCCGTATTTGCA (site TGCCGGTCTTG) | 1.45
GTGGAGGCATGGACCGGTTTTCCCGGTAATCCGTATTTGCG (site GTGGAGGCTCC) | 0.392
ATTGCGGCATGGACCGGTTTTCCCGGTAATCCGTATTTGCT (site CTTGCGGCTAG) | 0.161
CAATGCTCATGGACCGGTTTTCCCGGTAATCCGTATTTGAT (site CAATGCTCTAT) | 2.87
CACGGCCCATGGACCGGTTTTCCCGGTAATCCGTATTTGTT (site CCCGGCCCTAA) | 0.0158
TTTCCGGCATGGACCGGTTTTCCCGGTAATCCGTATTTGCT (site TTTTCGGCTAG) | 0.0123
CAATTCCCATGGACCGGTTTTCCCGGTAATCCGTATTTGCT (site CAATTCCCTTG) | 0.615
CCGTTAGCATGGACCGGTTTTCCCGGTAATCCGTATTTGTT (site CCGTTAGCTGA) | 0
AAAACTACATGGACCGGTTTTCCCGGTAATCCGTATTTGCG (site AAAACTACTCG) | 1.1
GGAGTGGCATGGACCGGTTTTCCCGGTAATCCGTATTTGGT (site GGAGTTGCTAC) | 0

Sequence | recombinant UMI read abundance (log10)
GCACTTCCATGGACCGGTTTTCCCGGTAATCCGTATTTGTT (site GCACTTCCTAA) | 0.561
ATTAAGTCATGGACCGGTTTTCCCGGTAATCCGTATTTGTA (site ATTAAGTCTTA) | 2.58
GAGCTCACATGGACCGGTTTTCCCGGTAATCCGTATTTGAT (site GAGCTCACTTT) | 0.125
GGGGCTCCATGGACCGGTTTTCCCGGTAATCCGTATTTGCA (site GGGGCCCCTTG) | 0.407
AGAGGGTCATGGACCGGTTTTCCCGGTAATCCGTATTTGGT (site AGAGGGTCTAC) | 2.54
TACTTGCCATGGACCGGTTTTCCCGGTAATCCGTATTTGCT (site TACTTGCCTAG) | 0.597
CTATATGCATGGACCGGTTTTCCCGGTAATCCGTATTTGTA (site CTATATGCTTA) | 2.55
AGCCAATCATGGACCGGTTTTCCCGGTAATCCGTATTTGGA (site AGCCAATCTTC) | 1.67
ACATATCCATGGACCGGTTTTCCCGGTAATCCGTATTTGAC (site ACATATCCTGT) | 1.43
AATCATACATGGACCGGTTTTCCCGGTAATCCGTATTTGGT (site AATCATACTAC) | 0.556
CGGGAATCATGGACCGGTTTTCCCGGTAATCCGTATTTGCC (site CGGGAGTCTGG) | 2.11
AATTATCCATGGACCGGTTTTCCCGGTAATCCGTATTTGCT (site TATTATCCTAG) | 0.201
ATCCAAGCATGGACCGGTTTTCCCGGTAATCCGTATTTGAT (site ATCCAAGCTTT) | 0.0123
TCGGATGCATGGACCGGTTTTCCCGGTAATCCGTATTTGAG (site TCGGATGCTCT) | 1.56
ATCCAAGCATGGACCGGTTTTCCCGGTAATCCGTATTTGAG (site ATCCCAGCTCT) | 0.0104
GTTGAAGCATGGACCGGTTTTCCCGGTAATCCGTATTTGAG (site GTTGAAGCTCT) | 1.61
GTAGTCCCATGGACCGGTTTTCCCGGTAATCCGTATTTGCG (site GTAGTCTCTCG) | 2.33
ATCTCTACATGGACCGGTTTTCCCGGTAATCCGTATTTGAC (site ATCTCTACTGT) | 2.29
GTAGTCGCATGGACCGGTTTTCCCGGTAATCCGTATTTGCT (site GTAGTCGCTAG) | 2.87
GAGGCAACATGGACCGGTTTTCCCGGTAATCCGTATTTGCT (site GAGGCAACTAG) | 1.66
GCCTTCTCATGGACCGGTTTTCCCGGTAATCCGTATTTGGG (site GCCTTCTCTCC) | 0.00741
CGTTCCCCATGGACCGGTTTTCCCGGTAATCCGTATTTGTG (site CGTTCCCCTCA) | 0.365
ACCGGTGCATGGACCGGTTTTCCCGGTAATCCGTATTTGAG (site ACCGGTGCTCT) | 1.35
GGAGTGGCATGGACCGGTTTTCCCGGTAATCCGTATTTGGT (site GCAGTGGCTAC) | 0.497
CGAGTACCATGGACCGGTTTTCCCGGTAATCCGTATTTGGG (site CGAGAACCTCC) | 0
